Here are results for 9 compounds from patent publication US20250051324A1, “PARP INHIBITOR, PHARMACEUTICAL COMPOSITION COMPRISING SAME, AND USE THEREOF” (KEYTHERA (SUZHOU) BIO-PHARMACEUTICALS CO., LIMITED, priority 2021, published 2025).

Data set [1] is described as follows: Liver microsome metabolism assay. As to conditions: CD1, mouse, liver microsomes.
The nature of data set [2]: Evaluation of pharmacokinetics in rats. It is filed as in vivo. As to conditions: male, SD, rat, plasma, 1 mg/kg, oral gavage (PO, 1 mpk). The text has this: Test Animals: 6-8 Week Old Male SD Rats
Food was restored two hours after dosing.

The nature of data set [3]: Evaluation of pharmacokinetics in mice. To be noted: male, ICR (CD1), mouse, plasma, po, 10 mg/kg.
The target in data set [4] is T1, PARP1 (Homo sapiens (Human), UniProt P09874). The data set can be described thus: PARP enzyme activity assay (PARP1 chemiluminescent assay kit). Type of data set: biochemical. To be noted: enzyme inhibitory activity, read-out: PARP-1 IC50. The text has this: Experimental Materials: The PARP1 assay kit was purchased from BPS Bioscience, USA, specifically the 384-well chemiluminescent assay kit (Catalog No.: #80551).
T1 sequence (P09874 whole entry): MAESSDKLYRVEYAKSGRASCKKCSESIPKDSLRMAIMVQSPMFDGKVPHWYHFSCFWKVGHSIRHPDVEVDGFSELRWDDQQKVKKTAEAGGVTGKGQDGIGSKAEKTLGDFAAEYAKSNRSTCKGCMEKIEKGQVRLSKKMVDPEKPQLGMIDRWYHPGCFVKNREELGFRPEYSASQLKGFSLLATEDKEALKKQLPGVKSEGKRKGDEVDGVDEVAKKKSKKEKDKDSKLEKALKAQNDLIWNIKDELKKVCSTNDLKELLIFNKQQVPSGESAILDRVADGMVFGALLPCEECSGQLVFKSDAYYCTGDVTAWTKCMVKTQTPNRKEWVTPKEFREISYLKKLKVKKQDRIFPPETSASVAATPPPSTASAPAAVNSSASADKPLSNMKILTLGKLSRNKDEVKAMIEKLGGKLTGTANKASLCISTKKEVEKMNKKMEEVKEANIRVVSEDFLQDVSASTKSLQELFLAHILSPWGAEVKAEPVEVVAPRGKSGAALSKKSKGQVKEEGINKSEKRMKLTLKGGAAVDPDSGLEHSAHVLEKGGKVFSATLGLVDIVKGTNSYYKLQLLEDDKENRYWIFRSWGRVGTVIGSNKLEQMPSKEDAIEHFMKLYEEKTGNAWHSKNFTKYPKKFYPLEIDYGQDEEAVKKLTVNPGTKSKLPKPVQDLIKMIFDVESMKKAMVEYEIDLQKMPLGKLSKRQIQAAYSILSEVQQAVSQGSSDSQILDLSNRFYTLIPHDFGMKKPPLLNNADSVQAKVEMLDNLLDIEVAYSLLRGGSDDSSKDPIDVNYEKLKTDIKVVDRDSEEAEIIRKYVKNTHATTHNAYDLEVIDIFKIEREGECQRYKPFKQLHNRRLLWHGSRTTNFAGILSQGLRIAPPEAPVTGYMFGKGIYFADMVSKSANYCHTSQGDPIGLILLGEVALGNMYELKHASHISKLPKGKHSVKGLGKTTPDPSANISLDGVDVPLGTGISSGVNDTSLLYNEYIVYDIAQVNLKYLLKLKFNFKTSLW
Experimental Principle: PARP can catalyze the transfer of ADP-ribose residues from NAD+ to target substrates, thereby modifying proteins through ribosylation. This experiment measures PARP1 enzyme activity by detecting the poly(ADP-ribosylation) of histones by PARP1.
Preparation of Reagents and Test Compounds: The 10× assay buffer included in the kit was diluted to 1× with distilled water. The test compound (stock concentration of 10 mM) was diluted to 10 μM with a DMSO solution and then serially diluted in a 1:3 ratio. The serially diluted compounds were further diluted 10-fold with the 1× assay buffer.
Experimental Method: The procedure was carried out according to the kit's instructions:
1. The 5× histone mixture was diluted to 1× with PBS, and 25 μL was added to each well of a 384-well plate, incubating overnight at 4° C.
2. After incubation, 100 μL of PBST (0.05% Tween 20) was added to each well for washing, repeated three times. Then, 100 μL of blocking solution was added to each well and incubated at room temperature for 90 minutes.
3. After incubation, the wells were washed three times with PBST, and then 1.25 μL of 10× assay buffer, 1.25 μL of 10×PARP assay mixture, 2.5 μL of activation DNA (5×), and 7.5 μL of distilled water were added to each well.
4. […] The positive control group and the negative control group were added with 1× assay buffer containing the same concentration of DMSO.
5. Next, 10 μL of 2.5 ng/μL PARP1 enzyme was added to the test compound and positive control groups, while 10 μL of 1× assay buffer was added to the negative control group, and the mixture was incubated at room temperature for 60 minutes.
6. Streptavidin-HRP was diluted 1:50 with the blocking solution. After incubation, the plate was washed three times with PBST, and 25 μL of the diluted streptavidin-HRP solution was added to each well, incubating at room temperature for 30 minutes.
7. After incubation, the plate was washed three times with PBST, and 50 μL of the mixed substrate A and substrate B in equal volumes was added. The luminescence signal was immediately read on a Synergy HTX multi-mode reader.
8. Data analysis was performed using GraphPad Prism 8.0 software. The inhibition rate %=100*(average luminescence signal of the positive control group−luminescence signal of the compound)/(average luminescence signal of the positive control group−average luminescence signal of the negative control group). The IC50 value was obtained by plotting the logarithm of the compound concentration against the percentage inhibition rate.

Data set [5] deals with MDA-MB-436 breast cancer cells. As to the kind of experiment: Cell proliferation assay, MDA-MB-436. It is filed as cell-based. To be noted: Homo sapiens, MDA-MB-436, 168 h; proliferation, 7 days; read-out: MDA-MB-436 Cell IC50. As to the method: Experimental Materials: MDA-MB-436 or UWB1.289 cell lines were purchased from Cobioer Biosciences Co. Ltd. (Nanjing, China). The STR identification results were a complete match, and mycoplasma testing was negative. MDA-MB-436 cells were cultured in DMEM complete medium containing 10% fetal bovine serum, 1% penicillin-streptomycin, 1% insulin, and 16 μg/mL glutathione; UWB1.289 cells were cultured in RMPI1640 complete medium containing 10% fetal bovine serum and 1% penicillin-streptomycin.
1. MDA-MB-436 or UWB1.289 cells were cultured in the aforementioned medium (culture conditions: 37° C., 5.0% CO2 in air) until they reached the logarithmic growth phase. The cells were then digested with trypsin containing 0.25% EDTA, centrifuged at 1000 rpm, and the supernatant was discarded. Cell culture medium was added, and the cell suspension was adjusted to 2×10^4/mL after counting. 135 μL of the cell suspension per well was taken and cultured in a 96-well cell culture plate for 16 hours (culture conditions: 37° C., 5.0% CO2 in air).
2. The test compounds, stored at a concentration of 10 mM, were diluted 2.5 times with DMSO and then serially diluted in a 1:3 gradient (9 gradients). The gradient-diluted samples were further diluted 40 times with serum-free medium, and 15 μL of each was added to the 96-well cell culture plate. The positive control group received serum-free medium containing the same concentration of DMSO, and the negative control group received medium without cells. The cells were then cultured for an additional 7 days.
3. After the culture period, the cell culture plate was placed at room temperature for 30 minutes. Then, 100 μL of CellCounting-Lite 2.0 reagent (Vazyme, #DD1101) was added to each well, mixed thoroughly, and incubated in the dark at room temperature for 10 minutes. The luminescence signal was read using a Synergy HTX multi-mode reader.
4. Data analysis was performed using GraphPad Prism 8.0 software. The inhibition rate (%) was calculated as 100*(average luminescence signal of the positive control group−luminescence signal of the compound)/(average luminescence signal of the positive control group−average luminescence signal of the negative control group). The IC50 value was obtained by plotting the logarithm of the compound concentration against the percentage inhibition rate.

For data set [6], the target named is T1, PARP1. The data set can be described thus: PARP1 trapping assay. It is filed as biochemical. As to conditions: read-out: Inhibitory Effect on PARP1 Trapping IC50. The method, then:
[table] […] 1. A 4× enzyme reaction mixture, comprising PARP1, PARP2, and GST-Tb antibody, was prepared with the buffer and 4 μL of the enzyme reaction mixture was added to a 384-well plate. 2. A 4×PARP1 and PARP2 probe reaction mixture was prepared with the buffer and 4 μL of the probe reaction mixture was added to the 384-well plate. 3. A series of gradient-diluted compounds were prepared and 4 μL of the diluted compounds were added to the 384-well plate, and incubated at room temperature for 45 minutes. 4. After incubation, 4 μL of 4×NAD reaction mixture was added to the 384-well plate and incubated at room temperature for 10 minutes. 5. After incubation, the plate was read using a plate reader. 6. Data Analysis: The percentage inhibition rate was calculated as follows: Inhibition Rate (%)=(Reading of Compound Group−Reading of Blank Group)/(Reading of Vehicle Control Group−Reading of Blank Group).

Turning to `CCc1cc2ncc(CN3CCN(c4ccc(C(=O)NC)nc4)CC3)cc2[nH]c1=O` [AZD5305, reference compound], the microsomal CLint at 1 µM in data set [1] was found to be 1.23 µL/min/mg. In data set [2], this compound had an AUC(0-inf) of 5.6 µg·h/mL, a Cmax of 1400 ng/mL and a half-life of 4.09 h. Moreover, in data set [3], the AUC(0-inf) worked out at 357 µg·h/mL, the peak level (Cmax) was 37300 ng/mL and the half-life was 8.25 h.
On to `Cc1c(C(F)(F)F)c(=O)[nH]c2cc(CN3CCN(c4cc5c(cn4)C(=O)NC5)CC3)cnc12` [Compound 15, 4-methyl-7-((4-(3-oxo-2,3-dihydro-1H-pyrrolo[3,4-c]pyridin-6-yl)piperazin-1-yl)methyl)-3-(trifluoromethyl)-1,5-naphthyridin-2(1H)-one], for which the IC50 at PARP1 [4] was 3.48 nM. The same compound registered a microsomal CLint at 1 µM in data set [1] of 0.75 µL/min/mg.
Regarding `CNC(=O)c1ccc(N2CCN(C(C)c3cnc4c(C)c(C(F)(F)F)c(=O)[nH]c4c3)CC2)cn1` (stereo not drawn) [Compound 24, N-methyl-5-(4-(1-(8-methyl-6-oxo-7-(trifluoromethyl)-5,6-dihydro-1,5-naphthyridin-3-yl)ethyl)piperazin-1-yl)picolinamide], the IC50 in data set [5] turned out to be 4.32 nM. In addition, the microsomal CLint at 1 µM in data set [1] came out at 0.4 µL/min/mg. In data set [3], the area under the curve AUC(0-inf) is 1100 µg·h/mL, the Cmax is 26300 ng/mL and the half-life is 28.7 h.
As for `CNC(=O)c1ccc(N2CCN(Cc3cnc4c(C)c(C(F)(F)F)c(=O)[nH]c4c3)CC2C#N)cn1` (stereo not drawn) [Compound 72, 5-(2-cyano-4-((8-methyl-6-oxo-7-(trifluoromethyl)-5,6-dihydro-1,5-naphthyridin-3-yl)methyl)piperazin-1-yl)-N-methylpicolinamide], in data set [5], the IC50 was found to be 8.18 nM. In data set [1], this compound registered a microsomal CLint at 1 µM of 0.6 µL/min/mg.
As for `CNC(=O)c1ccc(N2CCN(Cc3cnc4c(C)c(C#N)c(=O)[nH]c4c3)CC2)cn1` [Compound 85, 5-(4-((7-cyano-8-methyl-6-oxo-5,6-dihydro-1,5-naphthyridin-3-yl)methyl)piperazin-1-yl)-N-methylpicolinamide], the half-maximal inhibitory concentration (IC50) in data set [5] came to 16.4 nM. Also, in data set [1], the microsomal CLint at 1 µM worked out at 0.86 µL/min/mg.
For the compound `CNC(=O)c1ccc(N2CCN(Cc3cc4[nH]c(=O)c(C(F)(F)F)c(C)c4cn3)[C@H](C)C2)cn1` [Compound 87, (R)—N-methyl-5-(3-methyl-4-((4-methyl-2-oxo-3-(trifluoromethyl)-1,2-dihydro-1,6-naphthyridin-7-yl)methyl)piperazin-1-yl)picolinamide], the IC50 in data set [5] came out at 5.73 nM; on PARP1 [6] it was 2.57 nM. The same compound showed a microsomal CLint at 1 µM in data set [1] of 1.01 µL/min/mg.
On to `CNC(=O)c1ccc(N2CCN(Cc3cc4[nH]c(=O)c(C(F)(F)F)c(C)c4cn3)C[C@H]2C)cn1` [Compound 88, (R)—N-methyl-5-(2-methyl-4-((4-methyl-2-oxo-3-(trifluoromethyl)-1,2-dihydro-1,6-naphthyridin-7-yl)methyl)piperazin-1-yl)picolinamide], for which the IC50 in data set [5] was found to be 5.75 nM. This compound also displayed a microsomal CLint at 1 µM in data set [1] of 0.84 µL/min/mg. In addition, in data set [3], the AUC(0-inf) came to 1650 µg·h/mL, the Cmax stood at 38200 ng/mL and the half-life was 26.3 h. Besides, the IC50 on PARP1 [6] came out at 1.55 nM.
With `CNC(=O)c1ccc(N2CCN([C@H](C)c3cnc4c(C)c(C(F)(F)F)c(=O)[nH]c4c3)CC2)cn1` [Compound 90, (R)—N-methyl-5-(4-(1-(8-methyl-6-oxo-7-(trifluoromethyl)-5,6-dihydro-1,5-naphthyridin-3-yl)ethyl)piperazin-1-yl)picolinamide], in data set [5], the IC50 is 7.26 nM. Also, the microsomal CLint at 1 µM in data set [1] stood at 0.21 µL/min/mg. In data set [3], the AUC(0-inf) was determined as 1360 µg·h/mL, the Cmax was 49900 ng/mL and the half-life is 20.2 h. Moreover, the IC50 on PARP1 [6] was 4.33 nM.
Take `CNC(=O)c1ccc(N2CCN([C@@H](C)c3cnc4c(C)c(C(F)(F)F)c(=O)[nH]c4c3)CC2)cn1` [Compound 91, (S)—N-methyl-5-(4-(1-(8-methyl-6-oxo-7-(trifluoromethyl)-5,6-dihydro-1,5-naphthyridin-3-yl)ethyl)piperazin-1-yl)picolinamide]: the IC50 amounted to 3.24 nM in data set [5] and 2.9 nM at PARP1 [6]. Further, the intrinsic metabolic clearance (microsomal CLint) at 1 µM in data set [1] is 0.3 µL/min/mg.
